In patent US9758516B2, “Crystalline form of an anxiolytic compound” (Bionomics Limited, priority 2013, dated 2017):
Values belong to the compound of their own block, whether it stands above or below them.

Key:
[1] = Stability study of Form B stored at about 40° C. and about 75% r.h. (HPLC, XRPD, IR); format: physicochemical; parameters: key to XRPD / IR: The term “complies” refers to substantially the same XRPD pattern and/or IR spectrum as the sample at the incept of the storage (time point=initial); conditions: for Concentration of compound 1 by HPLC Assay (anhydrous basis) / IR / XRPD: about 40° C., about 75% r.h.
Procedure: Standard solutions of the SP196-FD-P1 free drug of compound 1 and the L-malate salt of compound 1 (SP196-MLA-P4) were prepared in the concentration range of 0.2-0.05 mg/mL for the construction of a calibration curve.
Another sample of Form B was stored at about 40° C. and about 75% r.h. for a period of time (e.g., 6 months). The concentration of compound 1 in the sample was assayed using HPLC, XRPD, and IR at different time points. The term “complies” refers to substantially the same XRPD pattern and/or IR spectrum as the sample at the incept of the storage (time point=initial).

[2] = Stability study of Form B stored at about 25° C. and about 60% r.h. (HPLC, XRPD, IR); format: physicochemical; parameters: key to XRPD / IR: The term “complies” refers to substantially the same XRPD pattern and/or IR spectrum as the sample at the incept of the storage (time point=initial); conditions: for Concentration of compound 1 by HPLC Assay (anhydrous basis) / IR / XRPD: about 25° C., about 60% r.h.
Procedure: A sample of Form B was stored at about 25° C. and about 60% r.h. for a period of time (e.g., 24 months). The concentration of compound 1 in the sample was assayed using HPLC, XRPD, and IR at different time points. The term “complies” refers to substantially the same XRPD pattern and/or IR spectrum as the sample at the incept of the storage (time point=initial).

[3] = Drying of Form B under vacuum at 40° C.; format: physicochemical
Procedure: A solid sample of Form B was dried in an attempt to dehydrate it. The sample was stored under vacuum (<5 mbar (e.g., about 4 mbar)) at 40° C. overnight or for 1 day.

[4] = Dynamic vapor sorption (DVS) measurement, hygroscopicity; format: physicochemical
Procedure: Projekt Messtechnik Sorptions Prüfsystem SPS 11-100n or Surface Measurement Systems DVS-1. The sample was placed on an aluminum or platinum holder on top of a microbalance and allowed to equilibrate for 2 h at 50% r.h. before starting one of two pre-defined humidity programs:
(2) 50→0% r.h. (5%/h); 5 h at 0% r.h.;
(3) 0→95% r.h. (5%/h); 5 h at 95% r.h.; and
The hygroscopicity was classified based on the mass gain at 85% r.h. relative to the initial mass as follows: deliquescent (sufficient water adsorbed to form a liquid), very hygroscopic (mass increase of ≧15%), hygroscopic (mass increase <15% and ≧2%), slightly hygroscopic (mass increase <2% and ≧0.2%), or non-hygroscopic (mass increase <0.2%).
During the DVS measurement (FIG. 4), the relative humidity was first lowered from 50% r.h. to 0% r.h., then raised from 0% r.h. to 95% r.h. and lowered back again to 50% r.h. […] Upon increasing the relative humidity to 95% r.h., a gradual mass gain of about 0.3 wt % (relative to the mass at 0% r.h.) was observed. […] The mass increase of 0.1 wt % at 85% r.h. (relative to the starting mass at 50% r.h.) classifies the sample as non-hygroscopic.

[5] = Competitive slurry experiment, Form B versus anhydrous form; format: physicochemical
From the text: In some embodiments, it would be desirable to provide a crystalline polymorph of compound 1 that, as compared to the amorphous compound 1, imparts improved physical characteristics such as stability and/or ease of formulation. Accordingly, provided herein is a crystalline form (denoted Form B) of compound 1. Form B is a hemihydrate of compound 1. […] In some embodiments, Form B has a water content of about 2.0 wt %. […] In a competitive slurry experiment there was a tendency for the anhydrous form to convert to Form B.

[6] = reported, see U.S. Pat. No. 8,293,737; cited from earlier work
[7] = vacuum (<5 mbar) at 40° C. overnight or for 1 day

stable upon storage, duration ([1]; about 40° C. and about 75% r.h.): at least 6 months
Concentration of compound 1 by HPLC Assay (anhydrous basis) ([1]; 1 month): 99.6% w/w
Concentration of compound 1 by HPLC Assay (anhydrous basis) ([1]; 2 months): 99.3% w/w
Concentration of compound 1 by HPLC Assay (anhydrous basis) ([1]; 3 months): 99.3% w/w
IR ([1]; 3 months): complies
XRPD ([1]; 3 months): complies
Concentration of compound 1 by HPLC Assay (anhydrous basis) ([1]; 6 months): 99.4% w/w
IR ([1]; 6 months): complies
XRPD ([1]; 6 months): complies
Concentration of compound 1 by HPLC Assay (anhydrous basis) ([1]; time point Initial): 99.5% w/w
stable upon storage, duration ([2]; about 25° C. and about 60% r.h.): at least 24 months
Concentration of compound 1 by HPLC Assay (anhydrous basis) ([2]; 3 months): 99.4% w/w
IR ([2]; 3 months): complies
XRPD ([2]; 3 months): complies
Concentration of compound 1 by HPLC Assay (anhydrous basis) ([2]; 6 months): 99.6% w/w
IR ([2]; 6 months): complies
XRPD ([2]; 6 months): complies
Concentration of compound 1 by HPLC Assay (anhydrous basis) ([2]; 12 months): 99.3% w/w
IR ([2]; 12 months): complies
XRPD ([2]; 12 months): complies
Concentration of compound 1 by HPLC Assay (anhydrous basis) ([2]; 18 months): 99.4% w/w
IR ([2]; 18 months): complies
XRPD ([2]; 18 months): complies
Concentration of compound 1 by HPLC Assay (anhydrous basis) ([2]; 24 months): 99.2% w/w
IR ([2]; 24 months): complies
XRPD ([2]; 24 months): complies
Concentration of compound 1 by HPLC Assay (anhydrous basis) ([2]; time point Initial): 99.5% w/w
stability upon drying [3]: stable upon drying
loss of H2O of the dried sample (TG-FTIR) ([3]; dried sample, from 50° C. to 200° C.): about 1.9 wt %
XRPD pattern of the dried sample compared to before drying [3, 7]: unchanged
hygroscopicity (in words) [4]: substantially non-hygroscopic
FT-Raman spectrum after the DVS measurement compared to before ([4]; after DVS cycle 50→0→95→50% r.h.): unchanged
mass increase (DVS) ([4]; at 85% r.h., relative to the starting mass at 50% r.h.): 0.1 wt %
mass gain (DVS) ([4]; upon increasing the relative humidity to 95% r.h., relative to the mass at 0% r.h.): about 0.3 wt %
mass loss (DVS) ([4]; upon lowering the relative humidity from 50% r.h. to 0% r.h.): about 0.1 wt %
final mass (DVS) ([4]; upon lowering the relative humidity from 95% r.h. to 50% r.h.): equal to the starting mass
Compound: CCn1cc(C(=O)N2CCOCC2)c(=O)c2cc(NC3Cc4ccccc4C3)cnc21 [Form B, 1-ethyl-6-(indan-2-ylamino)-3-(morpholine-4-carbonyl)-1,8-naphthyridin-4-one]
dehydration on drying [3, 7]: no dehydration and loss of solvent occurred
hygroscopicity classification ([4]; based on the mass gain at 85% r.h. relative to the initial mass): non-hygroscopic (non-hygroscopic (mass increase <0.2%))
relative stability of forms [5]: more stable than an anhydrous form of compound 1

Compound: CCn1cc(C(=O)N2CCOCC2)c(=O)c2cc(NC3Cc4ccccc4C3)cnc21 [Compound 1, 1-ethyl-6-(indan-2-ylamino)-3-(morpholine-4-carbonyl)-1,8-naphthyridin-4-one]
sedative side effects [6]: without sedative side effects
